Laboratory results: patent EP0260606A2, “Medicament for curing neurotic disturbance or disorder comprising sialocylglycerolipid” (MECT CORPORATION, priority 1986, dated 1988)

Test system: rats having their sciatic nerves crushed
Experiment: Curing effect on rats with crushed sciatic nerve (distance between toes, weight of musculi soleus)
Assay type: in vivo, rat
Details: 0.5 mg/kg, ip, average ± S.D.
Procedure: The curing effect of the compound (I) of the invention on the rats having their sciatic nerves crushed, which were used as models caused by peripheral nervous disturbances, was assessed by examining (l) the change in action of the crushed hind leg and (2) the change in weight of the muscle as indicators for the modification of peripheral nerve and for the recovery course of the disturbance.
In the experiment, seven male Wister family rats (6 weeks age) were used per a group. The sciatic nerve of each rat was crushed in accordance with the method of Yamazu et al. (see Kiyomi Yamazu, Takenori Kaneko, Akifumi Kitahara and Isao Ohkawa, Journal of Japanese Pharmacological Society, 72, 259 - -268 (l976)) and in accordance with the method of Hasegawa et al. (see Kazuo Hasegawa, Naoji Mikuni and Yutaka Sakai, Journal of Japanese Pharmacological Society, 74, 72l - 734 (l978)). Specifically, under anesthesia with Pentobarbital (40 mg/kg, i.p.), the left sciatic nerve was exposed at the femur and the site 5 mm centrally from the branch portion between the N. tibialis and the N. suralis was crushed using a modified artery klemme having a width of 2 mm and gap of 0.l mm. Rats subjected to the operation were randomly dispensed to form the groups subjected to test.
The compound (I) of the invention was intraperitoneally administered one time per day from the day on which the nerve was crushed to the 22nd day. The control groups included a group administered with Mecobalamin (produced by Gedeon Richter Ltd.), a group administered with a 20% aqueous solution of propylene glycol (hereinafter referred to as 20% PG) which was used to dissolve the compound (I) of the invention, and a group administered with a 0.9% aqueous saline solution. The predetermined measurements were conducted with the lapse of time after the crushing operation (at the first, fourth, seventh, tenth, l4th, l5th, l7th, l9th 2lst and 28th days).
The distance between the toes was measured, since this is a good indicator showing the modification and recovery of the function of the nerve and the change thereof could conveniently measured with the lapse of time.
The measurement was conducted in accordance with the method of Hasegawa, (Hasegawa, K., Experientia, 34, 750 - 75l (l978)) by measuring the distance from the first toe to the fifth toe of the hind leg.
The ratio of the distance at the crushed side to the distance at the normal side was calculated as a percentage (%), the average values and the standard deviations (S.D.) being shown in Table 5.
It is known that removal of or disturbance in a certain nerve causes atrophy of the muscle controlled by the nerve, and the atrophy is gradually recovered by the recontrol by the nerve. For this reason, the quantitative change in weight of the muscle was selected as an indicator. At 28th day after the operation, the muscli soleus of both hind legs were extracted under anesthesia with Pentobarbital, and the weights of the muscles were weighed. The weight ratio of the muscli soleus at the crushed side to the muscli soleus at the normal side was calculated and represented by percentage (%).

In the case of `C/C1=C2/[N-][C@H]([C@H](CC(N)=O)[C@@]2(C)CCC(=O)NC[C@@H](C)OP(=O)([O-])O[C@H]2[C@@H](O)[C@@H](n3cnc4cc(C)c(C)cc43)O[C@@H]2CO)[C@]2(C)N=C(/C(C)=C3N=C(/C=C4N=C1[C@@H](CCC(N)=O)C\4(C)C)[C@@H](CCC(N)=O)[C@]\3(C)CC(N)=O)[C@@H](CCC(N)=O)[C@]2(C)CC(N)=O.[CH3-].[Co+3]` [Mecobalamine], the “Recovery Rate (%) in Distance between the Fingers” value (17th Day) is reported as 77.0 ± 10.7%, the “Recovery Rate (%) in Distance between the Fingers” value (19th Day) is reported as 88.8 ± 5.1 % and the “Recovery Rate (%) in Weight of the Muscle” value (28th Day) is reported as 82.7 ± 5.1%.
